# Marks after values point to notes of the source that are not given here.
# Tests used:
# [1] = tested on: P-gp expressed in Madin-Darby canine kidney (MDCK)-MDR1 cells; details: efflux blocked with verapamil; cited from earlier work
# [2] = format: in vivo, male Sprague Dawley rats; details: for Blood %ID/gram, 5 min CycA / Bone %ID/gram, 5 min CycA / Fat %ID/gram, 5 min CycA / Kidney %ID/gram, 5 min CycA / Liver %ID/gram, 5 min CycA / Lung %ID/gram, 5 min CycA / Muscle %ID/gram, 5 min CycA / Total brain %ID/gram, 5 min CycA / Blood %ID/gram, 30 min CycA / Bone %ID/gram, 30 min CycA / Fat %ID/gram, 30 min CycA / Kidney %ID/gram, 30 min CycA / Liver %ID/gram, 30 min CycA / Lung %ID/gram, 30 min CycA / Muscle %ID/gram, 30 min CycA / Total brain %ID/gram, 30 min CycA: CycA […] mg/kg i.v. 30 min before tracer; for Blood %ID/gram, 5 min CycA / Bone %ID/gram, 5 min CycA / Fat %ID/gram, 5 min CycA / Kidney %ID/gram, 5 min CycA / Liver %ID/gram, 5 min CycA / Lung %ID/gram, 5 min CycA / Muscle %ID/gram, 5 min CycA / Total brain %ID/gram, 5 min CycA / Blood %ID/gram, 5 min No Rx / Bone %ID/gram, 5 min No Rx / Fat %ID/gram, 5 min No Rx / Kidney %ID/gram, 5 min No Rx / Liver %ID/gram, 5 min No Rx / Lung %ID/gram, 5 min No Rx / Muscle %ID/gram, 5 min No Rx / Total brain %ID/gram, 5 min No Rx: 5 min post-injection; for Blood %ID/gram, 30 min CycA / Bone %ID/gram, 30 min CycA / Fat %ID/gram, 30 min CycA / Kidney %ID/gram, 30 min CycA / Liver %ID/gram, 30 min CycA / Lung %ID/gram, 30 min CycA / Muscle %ID/gram, 30 min CycA / Total brain %ID/gram, 30 min CycA / Blood %ID/gram, 30 min No Rx / Bone %ID/gram, 30 min No Rx / Fat %ID/gram, 30 min No Rx / Kidney %ID/gram, 30 min No Rx / Liver %ID/gram, 30 min No Rx / Lung %ID/gram, 30 min No Rx / Muscle %ID/gram, 30 min No Rx / Total brain %ID/gram, 30 min No Rx: 30 min post-injection; for Increase in brain uptake after CycA administration at 5 min: 5 min post injection; for Blood %ID/gram, 5 min No Rx / Bone %ID/gram, 5 min No Rx / Fat %ID/gram, 5 min No Rx / Kidney %ID/gram, 5 min No Rx / Liver %ID/gram, 5 min No Rx / Lung %ID/gram, 5 min No Rx / Muscle %ID/gram, 5 min No Rx / Blood %ID/gram, 30 min No Rx / Bone %ID/gram, 30 min No Rx / Fat %ID/gram, 30 min No Rx / Kidney %ID/gram, 30 min No Rx / Liver %ID/gram, 30 min No Rx / Lung %ID/gram, 30 min No Rx / Muscle %ID/gram, 30 min No Rx / Total brain %ID/gram, 30 min No Rx / Total brain %ID/gram, 5 min No Rx: control rats, i.v.; for Bone activity levels from 5 min to 30 min (metabolic defluorination): normal rats; for Blood CycA:No Rx / Bone CycA:No Rx / Fat CycA:No Rx / Kidney CycA:No Rx / Liver CycA:No Rx / Lung CycA:No Rx / Muscle CycA:No Rx / Total brain CycA:No Rx: ratio of tracer uptake in CycA versus control group 30 min post injection
# [3] = CycA pretreated versus control rats
structure (smiles),measurement,setting,value
O=C(NC/C=C/CN1CCN(c2cccc(Cl)c2Cl)CC1)c1ccc(-c2ccccn2)cc1 [PG 01037],Substrate for P-gp,[1],substrate for P-gp
"COc1ccccc1N1CCN(CCCCNC(=O)c2ccc(CC[18F])cc2)CC1 [[^18F]7, 4-(2-[^18F]-fluoroethyl)-N-(4-(4-(2-methoxyphenyl)piperazin-1-yl)butyl)benzamide]","Blood %ID/gram, 5 min CycA",[2],0.156 ± 0.033 %ID/gram
same,"Bone %ID/gram, 5 min CycA",[2],0.232 ± 0.015 %ID/gram
same,"Fat %ID/gram, 5 min CycA",[2],0.062 ± 0.017 %ID/gram
same,"Kidney %ID/gram, 5 min CycA",[2],1.782 ± 0.242 %ID/gram
same,"Liver %ID/gram, 5 min CycA",[2],1.790 ± 0.286 %ID/gram
same,"Lung %ID/gram, 5 min CycA",[2],1.423 ± 0.262 %ID/gram
same,"Muscle %ID/gram, 5 min CycA",[2],0.158 ± 0.055 %ID/gram
same,"Total brain %ID/gram, 5 min CycA",[2],0.421 ± 0.115 %ID/gram
same,"Blood %ID/gram, 30 min CycA",[2],0.178 ± 0.018 %ID/gram
same,"Bone %ID/gram, 30 min CycA",[2],0.168 ± 0.016 %ID/gram
same,"Fat %ID/gram, 30 min CycA",[2],0.069 ± 0.011 %ID/gram
same,"Kidney %ID/gram, 30 min CycA",[2],0.898 ± 0.076 %ID/gram
same,"Liver %ID/gram, 30 min CycA",[2],1.870 ± 0.184 %ID/gram
same,"Lung %ID/gram, 30 min CycA",[2],0.563 ± 0.016 %ID/gram
same,"Muscle %ID/gram, 30 min CycA",[2],0.147 ± 0.006 %ID/gram
same,"Total brain %ID/gram, 30 min CycA",[2],0.271 ± 0.068 %ID/gram
same,Increase in brain uptake after CycA administration at 5 min,[2]; [3],6.3 fold
same,Increase in brain uptake after CycA administration at 30 min,"[2]; CycA pretreated versus control rats, 30 min post injection",2.7 fold
same,"Blood %ID/gram, 5 min No Rx",[2],0.133 ± 0.018 %ID/gram
same,"Bone %ID/gram, 5 min No Rx",[2],0.243 ± 0.041 %ID/gram
same,"Fat %ID/gram, 5 min No Rx",[2],0.084 ± 0.036 %ID/gram
same,"Kidney %ID/gram, 5 min No Rx",[2],1.582 ± 0.293 %ID/gram
same,"Liver %ID/gram, 5 min No Rx",[2],2.035 ± 0.578 %ID/gram
same,"Lung %ID/gram, 5 min No Rx",[2],1.182 ± 0.086 %ID/gram
same,"Muscle %ID/gram, 5 min No Rx",[2],0.107 ± 0.017 %ID/gram
same,"Blood %ID/gram, 30 min No Rx",[2],0.167 ± 0.018 %ID/gram
same,"Bone %ID/gram, 30 min No Rx",[2],0.164 ± 0.018 %ID/gram
same,"Fat %ID/gram, 30 min No Rx",[2],0.086 ± 0.013 %ID/gram
same,"Kidney %ID/gram, 30 min No Rx",[2],0.952 ± 0.100 %ID/gram
same,"Liver %ID/gram, 30 min No Rx",[2],2.169 ± 0.113 %ID/gram
same,"Lung %ID/gram, 30 min No Rx",[2],0.668 ± 0.057 %ID/gram
same,"Muscle %ID/gram, 30 min No Rx",[2],0.143 ± 0.011 %ID/gram
same,"Total brain %ID/gram, 30 min No Rx",[2],0.098 ± 0.012 %ID/gram
same,Bone activity levels from 5 min to 30 min (metabolic defluorination),[2],No accumulation
same,Blood CycA:No Rx,[2],1.06
same,Bone CycA:No Rx,[2],1.02
same,Fat CycA:No Rx,[2],0.81
same,Kidney CycA:No Rx,[2],0.94
same,Liver CycA:No Rx,[2],0.86 ^e
same,Lung CycA:No Rx,[2],0.84 ^d
same,Muscle CycA:No Rx,[2],1.03
same,Total brain CycA:No Rx,[2],2.77 ^f
"CN(C)c1ccc(C(=O)NCCCCN2CCN(c3ccccc3OCC[18F])CC2)cc1 [[^18F]8, 4-(dimethylamino)-N-(4-(4-(2-(2-[^18F]fluoroethoxy)phenyl)piperazin-1-yl)butyl)benzamide]","Blood %ID/gram, 5 min CycA",[2],0.109 ± 0.009 %ID/gram
same,"Bone %ID/gram, 5 min CycA",[2],0.288 ± 0.008 %ID/gram
same,"Fat %ID/gram, 5 min CycA",[2],0.116 ± 0.004 %ID/gram
same,"Kidney %ID/gram, 5 min CycA",[2],2.235 ± 0.175 %ID/gram
same,"Liver %ID/gram, 5 min CycA",[2],1.770 ± 0.584 %ID/gram
same,"Lung %ID/gram, 5 min CycA",[2],1.893 ± 0.158 %ID/gram
same,"Muscle %ID/gram, 5 min CycA",[2],0.184 ± 0.014 %ID/gram
same,"Total brain %ID/gram, 5 min CycA",[2],0.895 ± 0.063 %ID/gram
same,"Blood %ID/gram, 30 min CycA",[2],0.062 ± 0.018 %ID/gram
same,"Bone %ID/gram, 30 min CycA",[2],0.599 ± 0.152 %ID/gram
same,"Fat %ID/gram, 30 min CycA",[2],0.115 ± 0.030 %ID/gram
same,"Kidney %ID/gram, 30 min CycA",[2],2.548 ± 0.490 %ID/gram
same,"Liver %ID/gram, 30 min CycA",[2],2.431 ± 0.365 %ID/gram
same,"Lung %ID/gram, 30 min CycA",[2],1.154 ± 0.102 %ID/gram
same,"Muscle %ID/gram, 30 min CycA",[2],0.154 ± 0.038 %ID/gram
same,"Total brain %ID/gram, 30 min CycA",[2],0.970 ± 0.077 %ID/gram
same,Increase in brain uptake after CycA administration at 5 min,[2]; [3],5.0 fold
same,"Blood %ID/gram, 5 min No Rx",[2],0.079 ± 0.006 %ID/gram
same,"Bone %ID/gram, 5 min No Rx",[2],0.490 ± 0.033 %ID/gram
same,"Fat %ID/gram, 5 min No Rx",[2],0.101 ± 0.046 %ID/gram
same,"Kidney %ID/gram, 5 min No Rx",[2],2.939 ± 0.544 %ID/gram
same,"Liver %ID/gram, 5 min No Rx",[2],2.124 ± 0.113 %ID/gram
same,"Lung %ID/gram, 5 min No Rx",[2],2.432 ± 0.211 %ID/gram
same,"Muscle %ID/gram, 5 min No Rx",[2],0.099 ± 0.007 %ID/gram
same,"Total brain %ID/gram, 5 min No Rx",[2],0.178 ± 0.030 %ID/gram
same,"Blood %ID/gram, 30 min No Rx",[2],0.046 ± 0.008 %ID/gram
same,"Bone %ID/gram, 30 min No Rx",[2],0.882 ± 0.153 %ID/gram
same,"Fat %ID/gram, 30 min No Rx",[2],0.095 ± 0.017 %ID/gram
same,"Kidney %ID/gram, 30 min No Rx",[2],2.710 ± 0.235 %ID/gram
same,"Liver %ID/gram, 30 min No Rx",[2],2.134 ± 0.313 %ID/gram
same,"Lung %ID/gram, 30 min No Rx",[2],1.553 ± 0.179 %ID/gram
same,"Muscle %ID/gram, 30 min No Rx",[2],0.111 ± 0.006 %ID/gram
same,"Total brain %ID/gram, 30 min No Rx",[2],0.180 ± 0.006 %ID/gram
same,Bone activity levels from 5 min to 30 min (metabolic defluorination),[2],two-fold increase
same,Blood CycA:No Rx,[2],1.35
same,Bone CycA:No Rx,[2],0.68
same,Fat CycA:No Rx,[2],1.20
same,Kidney CycA:No Rx,[2],0.94
same,Liver CycA:No Rx,[2],1.14
same,Lung CycA:No Rx,[2],0.74
same,Muscle CycA:No Rx,[2],1.38
same,Total brain CycA:No Rx,[2],5.38 ^g
"O=C(NCCCCN1CCN(c2ccccc2OCC[18F])CC1)c1ccc(-c2ccsc2)cc1 [[^18F]9, N-(4-(4-(2-(2-[^18F]fluoroethoxy)phenyl)piperazin-1-yl)butyl)-4-(thiophen-3-yl)benzamide]","Blood %ID/gram, 5 min CycA",[2],0.098 ± 0.009 %ID/gram
same,"Bone %ID/gram, 5 min CycA",[2],0.162 ± 0.030 g %ID/gram
same,"Fat %ID/gram, 5 min CycA",[2],0.046 ± 0.028 %ID/gram
same,"Kidney %ID/gram, 5 min CycA",[2],1.913 ± 0.037 %ID/gram
same,"Liver %ID/gram, 5 min CycA",[2],1.478 ± 0.336 %ID/gram
same,"Lung %ID/gram, 5 min CycA",[2],3.356 ± 0.261 %ID/gram
same,"Muscle %ID/gram, 5 min CycA",[2],0.097 ± 0.0417 %ID/gram
same,"Total brain %ID/gram, 5 min CycA",[2],0.725 ± 0.022 %ID/gram
same,"Blood %ID/gram, 30 min CycA",[2],0.109 ± 0.019 %ID/gram
same,"Bone %ID/gram, 30 min CycA",[2],0.143 ± 0.016 %ID/gram
same,"Fat %ID/gram, 30 min CycA",[2],0.093 ± 0.017 %ID/gram
same,"Kidney %ID/gram, 30 min CycA",[2],1.397 ± 0.260 %ID/gram
same,"Liver %ID/gram, 30 min CycA",[2],1.039 ± 0.124 %ID/gram
same,"Lung %ID/gram, 30 min CycA",[2],1.063 ± 0.182 %ID/gram
same,"Muscle %ID/gram, 30 min CycA",[2],0.108 ± 0.014 %ID/gram
same,"Total brain %ID/gram, 30 min CycA",[2],0.504 ± 0.023 %ID/gram
same,"Blood %ID/gram, 5 min No Rx",[2],0.082 ± 0.027 %ID/gram
same,"Bone %ID/gram, 5 min No Rx",[2],0.253 ± 0.001 %ID/gram
same,"Fat %ID/gram, 5 min No Rx",[2],0.028 ± 0.003 %ID/gram
same,"Kidney %ID/gram, 5 min No Rx",[2],2.485 ± 0.608 %ID/gram
same,"Liver %ID/gram, 5 min No Rx",[2],1.430 ± 0.221 %ID/gram
same,"Lung %ID/gram, 5 min No Rx",[2],4.026 ± 1.177 %ID/gram
same,"Muscle %ID/gram, 5 min No Rx",[2],0.083 ± 0.009 %ID/gram
same,"Total brain %ID/gram, 5 min No Rx",[2],0.118 ± 0.001 %ID/gram
same,"Blood %ID/gram, 30 min No Rx",[2],0.104 ± 0.010 %ID/gram
same,"Bone %ID/gram, 30 min No Rx",[2],0.220 ± 0.0494 %ID/gram
same,"Fat %ID/gram, 30 min No Rx",[2],0.091 ± 0.0029 %ID/gram
same,"Kidney %ID/gram, 30 min No Rx",[2],1.363 ± 0.0359 %ID/gram
same,"Liver %ID/gram, 30 min No Rx",[2],1.162 ± 0.1400 %ID/gram
same,"Lung %ID/gram, 30 min No Rx",[2],1.313 ± 0.3574 %ID/gram
same,"Muscle %ID/gram, 30 min No Rx",[2],0.083 ± 0.0139 %ID/gram
same,"Total brain %ID/gram, 30 min No Rx",[2],0.095 ± 0.0208 %ID/gram
same,Bone activity levels from 5 min to 30 min (metabolic defluorination),[2],No accumulation
same,Blood CycA:No Rx,[2],1.05
same,Bone CycA:No Rx,[2],0.65
same,Fat CycA:No Rx,[2],1.02
same,Kidney CycA:No Rx,[2],1.03
same,Liver CycA:No Rx,[2],0.89
same,Lung CycA:No Rx,[2],0.81
same,Muscle CycA:No Rx,[2],1.24
same,Total brain CycA:No Rx,[2],5.33 ^h
